The source of these data is patent publication US20230158151A1 (NURIX THERAPEUTICS, INC., priority 2021, published 2023).

The target of the assay is T1, ITK (Mus musculus, UniProt Q03526).
T1 construct: administered to mice orally; from tissue; host or cells: mouse splenocytes (spleen) after oral dosing
T1 sequence (Q03526 1-625): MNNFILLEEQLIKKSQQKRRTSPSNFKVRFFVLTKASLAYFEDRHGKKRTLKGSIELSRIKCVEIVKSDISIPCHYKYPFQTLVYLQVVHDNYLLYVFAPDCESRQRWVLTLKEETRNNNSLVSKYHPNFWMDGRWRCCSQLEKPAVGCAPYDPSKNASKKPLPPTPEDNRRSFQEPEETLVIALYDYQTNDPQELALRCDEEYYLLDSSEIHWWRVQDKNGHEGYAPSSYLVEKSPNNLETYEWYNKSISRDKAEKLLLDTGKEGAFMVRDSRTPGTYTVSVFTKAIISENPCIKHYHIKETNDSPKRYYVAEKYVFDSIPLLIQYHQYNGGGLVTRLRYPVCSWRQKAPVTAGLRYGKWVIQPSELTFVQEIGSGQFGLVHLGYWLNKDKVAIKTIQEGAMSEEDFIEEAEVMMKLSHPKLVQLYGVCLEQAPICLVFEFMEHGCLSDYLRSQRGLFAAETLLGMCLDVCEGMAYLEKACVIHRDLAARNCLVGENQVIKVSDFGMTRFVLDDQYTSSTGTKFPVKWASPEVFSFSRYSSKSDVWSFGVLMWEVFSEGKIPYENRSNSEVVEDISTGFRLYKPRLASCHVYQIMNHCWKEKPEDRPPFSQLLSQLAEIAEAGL
In words: Western Assay for ITK Degradation in Mouse Splenocytes after oral administration. The format is in vivo. Conditions: for ITK degradation in vivo by Western blotting: mouse splenocytes, oral. How it is done: Compounds 30 and 31 were administered to mice orally. After 6 hours, splenocytes cells were harvested. ITK was evaluated by Western blotting. Media was removed and cell pellets were lysed in 100 μL lysis buffer (RIPA buffer (Fisher, PI89901), cOmplete Mini EDTA-free protease inhibitor (Sigma 11836170001), Protease Inhibitor Cocktail (Sigma, P2714), Phosphatase Inhibitor Cocktail 2 and 3 (Sigma, P5726 and P0044), Benzonase (Sigma, E1014)). Cells were lysed overnight at −20° C. Following thaw, cells were centrifuged for 10 min at 13000 rpm, then transferred to new tube. Protein levels were determined by BCA Assay performed according to manufacturer's protocol (EMD Millipore, cat. no. 71285-3). Samples were combined with (4×) LDS Sample Buffer and (10×) Reducing Agent and H2O to equally load 20 μg protein per lane of a 26-well NuPAGE 4-12% Bis-Tris protein gel (1.0 mm, Thermo cat. no. NP0326). Samples were separated by running gels at constant 150 V in NuPAGE MES SDS Running Buffer. Following electrophoresis, proteins were transferred to nitrocellulose membranes using an iBlot Gel Transfer Device and iBlot Gel Transfer Stacks (Thermo cat. no. IB21001 and IB301001) and transfer method P3 (20V for 7 min). Membranes were blocked for 1 hr in 5% milk solution (TBS (0.2% Tween-20)). Following blocking, membranes were incubated with primary antibody (1:1000 CST ITK (2F12) #2380) overnight at 4° C. with gentle shaking. Blots were washed 2× in TBS (0.2% Tween-20), 30 min per wash. Following washes, blots were incubated in secondary HRP-conjugated antibody (Promega anti-Mouse IgG (H+L) HRP cat. no. W4021), 1:5000 in 5% milk solution (TBS (0.2% Tween-20)), for 1 hr at room temperature with gentle shaking. Blots were washed 2× in TBS (0.2% Tween-20), 30 min per wash. Blots were incubated with 1:1 mix of ECL reagents 1 & 2 (Amersham ECL Western Blotting Detection Reagent, cat. no. RPN2106) for 2 min at room temperature. Bands were visualized using a Protein Simple imager. Blots were then re-probed with a combination of anti-actin antibody (Sigma Monoclonal Mouse Anti-β-Actin (clone AC-15), cat. no. A5441) and secondary HRP-conjugated antibody (Promega anti-Mouse IgG (H+L) HRP, cat. no. W4021) and similar steps were taken for incubation, wash, detection and visualization steps as above. The data was analyzed using Alpha View software. The densitometric reading for each sample band was normalized to that of the corresponding actin band per lane. Approximate % ITK remaining per sample was calculated as follows: […]
Once % ITK remaining has been calculated for each sample, groups are averaged together to show an means % ITK normalized to actin and relative to control.
Compounds 30 and 29 were administered to mice orally. After 6 hours or 24 hours, splenocytes cells were harvested. ITK was evaluated by Western blotting. Plasma concentrations were determined by LC/MS/MS. Plasma samples were protein precipitated by addition of 100 μl of acetonitrile containing 50 ng/ml of internal standard. The resulting mixture was vortexed and centrifuged at 4000 RPM for 5 minutes. An aliquot of the resultant supernatant (75 μl) was added to 75 μl of 0.1% formic acid in water to constitute the final sample for injection. Samples were injected on a Shimadzu Exion LC Binary Gradient AD Pump HLPC system connected to a Sciex QTRAP 6500+ mass spectrometer. Five μl of sample was injected onto a Waters Acquity UPLC BEH C18 column 130A (2.1×30 mm, […]) at 40° C. utilizing a flow rate of 700 μl/minute. Mobile Phase A was 0.1% formic acid in water and mobile phase B was 0.1% formic acid in acetonitrile. A linear gradient of 15-95% B over 1.0 minute was used. The mass spectrometer was operated in positive ion electrospray mode with multiple reaction monitoring for maximum sensitivity. Sciex Analyst software (version 1.6.3) was used for LC/MS/MS instrument control and acquisition. […]
Background: In western blotting, separated proteins are transferred to a membrane and probed.

[1] abbreviates: % ITK remaining in mouse splenocytes, 90 mpk PO.
Where [2] appears, read: % ITK remaining in mouse splenocytes, 24 h.

Turning to `CC1(C)CCc2c(-c3cc4ccc(N5CCC6(CCN(CC7CCN(c8ccc(C9CCC(=O)NC9=O)cn8)CC7)CC6)C5=O)cc4[nH]3)n[nH]c2C1` (centres unmarked) [Compound 24, 3-(6-(4-((2-(2-(6,6-dimethyl-4,5,6,7-tetrahydro-1H-indazol-3-yl)-1H-indol-6-yl)-1-oxo-2,8-diazaspiro[4.5]decan-8-yl)methyl)piperidin-1-yl)pyridin-3-yl)piperidine-2,6-dione], the “ITK (%) 90 mpk PO, 6 h” value under setting [1] is recorded as 45%.

For the compound `CC1(C)CCc2c(-c3cc4ccc(C(=O)N5CCC(CN6CCN(c7ccc(C8CCC(=O)NC8=O)nc7)CC6)CC5)cc4[nH]3)n[nH]c2C1` (centres unmarked) [Compound 35, 3-(5-(4-((1-(2-(6,6-dimethyl-4,5,6,7-tetrahydro-1H-indazol-3-yl)-1H-indole-6-carbonyl)piperidin-4-yl)methyl)piperazin-1-yl)pyridin-2-yl)piperidine-2,6-dione], under setting [2], the “ITK (%) 60 mpk PO, 24 h” value is given as >100%. Take `CC1(C)CCc2c(-c3cc4ccc(C(=O)N5CCN(CC6CCN(c7ccc(C8CCC(=O)NC8=O)cn7)CC6)CC5)cc4[nH]3)n[nH]c2C1` (centres unmarked) [Compound 26, 3-(6-(4-((4-(2-(6,6-dimethyl-4,5,6,7-tetrahydro-1H-indazol-3-yl)-1H-indole-6-carbonyl)piperazin-1-yl)methyl)piperidin-1-yl)pyridin-3-yl)piperidine-2,6-dione]: the “ITK (%) 90 mpk PO, 6 h” value under setting [1] is recorded as 11%. Consider `C[C@@H](C(=O)N(C)c1ccc2cc(-c3n[nH]c4c3CCC(C)(C)C4)[nH]c2c1)N1CCN(CC2CCN(c3ccc(N4CCC(=O)NC4=O)cn3)CC2)CC1` [Compound 31, (S)—N-(2-(6,6-dimethyl-4,5,6,7-tetrahydro-1H-indazol-3-yl)-1H-indol-6-yl)-2-(4-((1-(5-(2,4-dioxotetrahydropyrimidin-1(2H)-yl)pyridin-2-yl)piperidin-4-yl)methyl)piperazin-1-yl)-N-methylpropanamide], for which the “ITK (%) 90 mpk PO, 6 h” value under setting [1] is 116%. For the same compound, the “ITK degradation in vivo by Western blotting” value (“ITK degradation in vivo” below) by setting is: (6 hours) “degraded ITK in vivo”; (24 hours) “degraded ITK in vivo”. In the case of `CC1(C)CCc2c(-c3cc4ccc(C(=O)N5CCC(CN6CCN(c7ccc(C8CCC(=O)NC8=O)cc7)CC6)CC5)cc4[nH]3)n[nH]c2C1` (centres unmarked) [Compound 37, 3-(4-(4-((1-(2-(6,6-dimethyl-4,5,6,7-tetrahydro-1H-indazol-3-yl)-1H-indole-6-carbonyl)piperidin-4-yl)methyl)piperazin-1-yl)phenyl)piperidine-2,6-dione], under setting [2], the “ITK (%) 60 mpk PO, 24 h” value is on record as >100%.

On to `CN(C(=O)CCC1CCN(c2ccc(C3CCC(=O)NC3=O)cn2)CC1)c1ccc2cc(-c3n[nH]c4c3C[C@@H]3C(F)(F)[C@]3(C)C4)[nH]c2c1` (stereo partly drawn) [Compound 4, N-(2-((4aS,5aR)-5,5-difluoro-5a-methyl-1,4,4a,5,5a,6-hexahydrocyclopropa[f]indazol-3-yl)-1H-indol-6-yl)-3-(1-(5-(2,6-dioxopiperidin-3-yl)pyridin-2-yl)piperidin-4-yl)-N-methylpropanamide], for which the “ITK (%) 90 mpk PO, 6 h” value under setting [1] came to 76%. Take `C[C@@]12Cc3[nH]nc(C(=O)Nc4cnn(CC5CN(C(=O)C6CN(c7ccc(C8CCC(=O)NC8=O)cn7)C6)C5)c4)c3C[C@@H]1C2(F)F` (stereo partly drawn) [Compound 23, (4aS,5aR)—N-(1-((1-(1-(5-(2,6-dioxopiperidin-3-yl)pyridin-2-yl)azetidine-3-carbonyl)azetidin-3-yl)methyl)-1H-pyrazol-4-yl)-5,5-difluoro-5a-methyl-1,4,4a,5,5a,6-hexahydrocyclopropa[f]indazole-3-carboxamide]: under setting [1], the “ITK (%) 90 mpk PO, 6 h” value is given as 129%. On the same count and under the same terms, in the case of `C[C@@H](C(=O)N(C)c1ccc2cc(-c3n[nH]c4c3CCC(C)(C)C4)[nH]c2c1)N1CCN(CC2CCN(c3ccc(C4CCC(=O)NC4=O)cn3)CC2)CC1` (stereo partly drawn) [Compound 32, (2S)—N-(2-(6,6-dimethyl-4,5,6,7-tetrahydro-1H-indazol-3-yl)-1H-indol-6-yl)-2-(4-((1-(5-(2,6-dioxopiperidin-3-yl)pyridin-2-yl)piperidin-4-yl)methyl)piperazin-1-yl)-N-methylpropanamide] it was 11%.

`C[C@@H](C(=O)N(C)c1ccc2cc(-c3n[nH]c4c3C[C@@H]3C(F)(F)[C@]3(C)C4)[nH]c2c1)N1CCN(CC2CCN(c3ccc(N4CCC(=O)NC4=O)cn3)CC2)CC1` [Compound 29, (S)—N-(2-((4aS,5aR)-5,5-difluoro-5a-methyl-1,4,4a,5,5a,6-hexahydrocyclopropa[f]indazol-3-yl)-1H-indol-6-yl)-2-(4-((1-(5-(2,4-dioxotetrahydropyrimidin-1(2H)-yl)pyridin-2-yl)piperidin-4-yl)methyl)piperazin-1-yl)-N-methylpropanamide]: the “ITK (%) 90 mpk PO, 6 h” value under setting [1] amounted to 14%. Further, the “ITK degradation in vivo” value (6 hours) is listed as “degraded ITK in vivo” and the “ITK degradation in vivo” value (24 hours) is recorded as “degraded ITK”. For the compound `C[C@@]12Cc3[nH]nc(-c4cc5ccc(N6CCC7(CCN(CC8CCN(c9ccc(C%10CCC(=O)NC%10=O)cn9)CC8)CC7)C6=O)cc5[nH]4)c3C[C@@H]1C2(F)F` (stereo partly drawn) [Compound 28, 3-(6-(4-((2-(2-((4aS,5aR)-5,5-difluoro-5a-methyl-1,4,4a,5,5a,6-hexahydrocyclopropa[f]indazol-3-yl)-1H-indol-6-yl)-1-oxo-2,8-diazaspiro[4.5]decan-8-yl)methyl)piperidin-1-yl)pyridin-3-yl)piperidine-2,6-dione], the “ITK (%) 90 mpk PO, 6 h” value under setting [1] stood at 8%. On the same count and under the same terms, for `CN(C(=O)CC1CCN(CC2CCN(c3ccc(C4CCC(=O)NC4=O)cn3)CC2)CC1)c1ccc2cc(-c3n[nH]c4c3C[C@@H]3C(F)(F)[C@]3(C)C4)[nH]c2c1` (stereo partly drawn) [Compound 6, N-(2-((4aS,5aR)-5,5-difluoro-5a-methyl-1,4,4a,5,5a,6-hexahydrocyclopropa[f]indazol-3-yl)-1H-indol-6-yl)-2-(1-((1-(5-(2,6-dioxopiperidin-3-yl)pyridin-2-yl)piperidin-4-yl)methyl)piperidin-4-yl)-N-methylacetamide] the value was 92%.

Take `CC1(C)CCc2c(-c3cc4ccc(C(=O)N5CCN(CC6CCN(c7ccc(C8CCC(=O)NC8=O)cc7)CC6)CC5)cc4[nH]3)n[nH]c2C1` (centres unmarked) [Compound 38, 3-(4-(4-((4-(2-(6,6-dimethyl-4,5,6,7-tetrahydro-1H-indazol-3-yl)-1H-indole-6-carbonyl)piperazin-1-yl)methyl)piperidin-1-yl)phenyl)piperidine-2,6-dione]: under setting [1], the “ITK (%) 90 mpk PO, 6 h” value is listed as 14%. Under “% ITK remaining in mouse splenocytes, 90 mpk PO, 24 h”, the “ITK (%) 90 mpk PO, 24 h” value is listed as 14%.
